Test results taken from patent US10172907B2, “Compositions comprising β-arrestin 1 and methods of use thereof for therapeutic modulation of aldosterone levels in heart disease” (NOVA SOUTHEASTERN UNIVERSITY, priority 2010, dated 2019).
Entries after “also recorded” stand apart in the source; their conditions may differ. Values belong to the molecule of their own block, whether it stands above or below them. Non-standard residues stand in square brackets, D forms with d. Residues, ends and D or L forms follow the SMILES beside them. Sar = CNCC(=O)O

How the values were obtained:
[1] = test system: adrenal βarr1-overexpressing post-MI rats; test: Echocardiography (ejection fraction) of adrenal βarr1-overexpressing post-MI rats treated with sartans and CORET; type: in vivo, rat; conditions: for cardiac ejection fraction (EF): adrenal βarr1-overexpressing post-MI rats, 7-day treatment, saline-treated 35±0.3%; for ejection fraction (EF %) vs. Saline, in words: 3-week post-MI rats, 7 days post Adβarr1 gene transfer and concomitant treatment
Procedure: (§1) In vivo studies: For the in vivo studies, post-MI rats overexpressing Purl in their adrenals received 7-day-long treatments with the agents of interest.
(§2) Aldosterone measurements: Plasma aldosterone and in vitro aldosterone secretion in the supernatant of cultured H295R cells were determined by ELISA with the Aldosterone EIA kit from ALPCO Diagnostics, Salem, N.H. (Lymperopoulos A. et al. Proc. Natl. Acad. Sci. USA 106:5825-5830 2009). In vivo adrenal gene deliveries: Adrenal-specific in vivo gene delivery in rats was performed as previously described in Lymperopoulos A. et al. Proc. Natl. Acad. Sci. USA 106:5825-5830 2009). Echocardiographic and hemodynamic measurements: Two-dimensional guided M-mode and Doppler echocardiography and closed chest cardiac catheterization were performed as described in Lymperopoulos, A. et al. Nat. Med. 13:315-323 2007. Statistical analysis: Data are presented as mean±SEM. One- or two-way ANOVA with Bonferroni test was used for analysis of numeric parameters and differences were considered significant at p<0.05. Experimental Results
(§3) Statistical analysis: p<0.05, vs. Saline, ^, p<0.05, vs. CORET (SEQ ID NO:4) or IRB, n=6 rats/group.

H295R cells = test: In vitro βarr1-dependent SII-induced aldosterone secretion in H295R cells (ELISA); type: cell-based, human; conditions: H295R cells transfected with Adβarr1, stimulated with 1 mM SII, standard doses of agents; p<0.05 vs. SII
Procedure: as §2
Of note, when endogenous Purl is inhibited, no effects by drugs and peptides on SII-induced aldosterone secretion are seen (data not shown), as expected, since SII is a “biased” βarr-only agonist (Luttrell, L. M. et al. Pharmacol. Rev. 62:305-330 2010; Rajagopal, S. et al. Nat. Rev. Drug Discov. 9:373-386 2010; Kenakin, T. et al. Pharmacol. Rev. 62:265-304 2010). Statistical analysis: <0.05, vs. SII, n=3 independent experiments.

[2] = test system: adrenal βarr1-overexpressing post-MI rats; test: Plasma aldosterone in adrenal βarr1-overexpressing post-MI rats treated with sartans and CORET; type: in vivo, rat; conditions: 3-week post-MI rats, 7 days post Adβarr1 adrenal gene transfer, 7-day treatment
Procedure: as §1, §2
Statistical analysis: p<0.05, vs. Saline, n=6 rats/group.

AT1R [3] = target: T1, AT1R (Homo sapiens, UniProt P30556); test: Activation of βarr2 by human AT1R in vitro by AngII peptide analogs (FIGS. 1B-C); type: cell-based; conditions: for EC50: in vitro
T1 sequence (P30556 1-359): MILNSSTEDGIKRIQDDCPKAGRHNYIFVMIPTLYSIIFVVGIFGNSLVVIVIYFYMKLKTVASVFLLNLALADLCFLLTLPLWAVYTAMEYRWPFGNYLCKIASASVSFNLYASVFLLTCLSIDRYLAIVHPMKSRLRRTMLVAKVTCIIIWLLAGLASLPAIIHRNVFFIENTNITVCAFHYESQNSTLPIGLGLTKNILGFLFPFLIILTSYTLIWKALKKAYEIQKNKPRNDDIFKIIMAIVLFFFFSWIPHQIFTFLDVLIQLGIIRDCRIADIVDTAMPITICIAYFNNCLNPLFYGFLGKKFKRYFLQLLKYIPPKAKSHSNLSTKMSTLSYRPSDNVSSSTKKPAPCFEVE

[4] = test system: adrenal βarr1-overexpressing post-MI rats; test: In vivo hemodynamic analysis (cardiac contractility) of adrenal βarr1-overexpressing post-MI rats treated with sartans and CORET; design: species or system rat; conditions: vs. Saline
Procedure: as §1, §2, §3

AT1R [5] = target: T1, AT1R; test: Inhibition of SII-induced activation of βarr2 by human AT1R in vitro (FIG. 1A); conditions: % normalized signal
AT1R [6] = target: T1, AT1R; test: Biased antagonism of sartans for AT1R-stimulated βarr vs. G-protein-mediated signaling (FIG. 6); conditions: both IC50 in nM; <1 biased for βarr antagonism, >1 biased towards G-protein antagonism
Text: This ranking was derived from the ratios of individual IC50 for AT1R-βarr antagonism to IC50 for G-protein antagonism (both in nM) for each sartan.

post-MI rat hearts = test: Masson-trichrome staining for cardiac fibrosis in post-MI rats; type: in vivo; conditions: 7 days concomitant drug vs. vehicle (saline)
Procedure: (§4) In vivo adrenal gene delivery in post-myocardial infarction (MI) rats: All animal procedures and experiments were performed in accordance with the guidelines of the IACUC committees of Thomas Jefferson and Nova Southeastern Universities. MI was performed using a known cryo-infarct method (Lymperopoulos, A. et al. Nat. Med. 13:315-323 2007). Adrenal-specific in vivo gene delivery was done essentially as described in Lymperopoulos, A. et al. (Mol. Ther. 16:302-307 2008) via direct delivery of adenovirus in the adrenal gland. […] Construction and purification of adenovirus: Recombinant adenovirus that encode full length wild-type βarr1 (Adβarr1; SEQ ID NO:1) or a rat βarr1 C-terminal fragment (Adβarr-1ct) (SEQ ID NO:3, amino acid residues 369-418 of the C-terminal of rat βarr-1 (SEQ ID NO:2); see FIG. 7A) were constructed as described in Lymperopoulos A. et al. Proc. Nati. Acad. Sci. USA 106:5825-5830 2009 and Lymperopoulos, A. et al. Nat. Med. 13:315-323 2007. […] Plasma aldosterone measurements: Rat plasma aldosterone levels were determined by EIA (Aldosterone EIA Kit, ALPCO Diagnostics, Salem, N.H., USA) as described in Lymperopoulos A. et al. Proc. Natl. Acad. Sci. USA 106:5825-5830 2009 and Mihailidou et al. Hypertension 40:124-129 2002. […]

post-MI rats [7] = test: Plasma aldosterone (EIA) after adrenal gene delivery in post-MI rats; type: in vivo, rat
Procedure: In vivo adrenal gene delivery in post-myocardial infarction (MI) rats: All animal procedures and experiments were performed in accordance with the guidelines of the IACUC committees of Thomas Jefferson and Nova Southeastern Universities. MI was performed using a known cryo-infarct method (Lymperopoulos, A. et al. Nat. Med. 13:315-323 2007). Adrenal-specific in vivo gene delivery was done essentially as described in Lymperopoulos, A. et al. (Mol. Ther. 16:302-307 2008) via direct delivery of adenovirus in the adrenal gland. […] Construction and purification of adenovirus: Recombinant adenovirus that encode full length wild-type βarr1 (Adβarr1; SEQ ID NO:1) or a rat βarr1 C-terminal fragment (Adβarr-1ct) (SEQ ID NO:3, amino acid residues 369-418 of the C-terminal of rat βarr-1 (SEQ ID NO:2); see FIG. 7A) were constructed as described in Lymperopoulos A. et al. Proc. Nati. Acad. Sci. USA 106:5825-5830 2009 and Lymperopoulos, A. et al. Nat. Med. 13:315-323 2007. […] The black box highlights the clathrin- and AP-2 adaptin-binding domains, which are necessary for the receptor internalizing and signaling functions of βarr1 (Ferguson, S. S. Pharmacol Rev 53:1-24 2001) Transgenes were cloned into shuttle vector pAdTrack-CMV, which harbors a CMV-driven green fluorescent protein (GFP), to form the viral constructs by using standard cloning protocols. As control adenovirus, empty vector which expressed only GFP (AdGFP) was used. The resultant adenovirus were purified using two sequential rounds of CsCl density gradient ultracentrifugation as described in Lymperopoulos A. et al. Proc. Natl. Acad. Sci. USA 106:5825-5830 2009 and Lymperopoulos, A. et al. Nat. Med. 13:315-323 2007. Plasma aldosterone measurements: Rat plasma aldosterone levels were determined by EIA (Aldosterone EIA Kit, ALPCO Diagnostics, Salem, N.H., USA) as described in Lymperopoulos A. et al. Proc. Natl. Acad. Sci. USA 106:5825-5830 2009 and Mihailidou et al. Hypertension 40:124-129 2002. Echocardiographic and hemodynamic measurements: Two-dimensional guided M-mode and Doppler echocardiography using a 14-Mhz transducer (Vevo 770 Echograph, VisualSonic Inc., Toronto, Ontario, Canada) and closed chest cardiac catheterization were performed in rats as described in Lymperopoulos, A. et al. Nat. Med. 13:315-323 2007 and Rengo, G. et al. Circulation 119:89-98 2009. Three independent echocardiographic measurements were taken in both modes. […]

post-MI rats [8] = test: Echocardiographic parameters after adrenal gene delivery in post-MI rats; type: in vivo, rat; conditions: Adβarr1 post-MI rats
Procedure: as §4

Structure (SMILES): CCOc1nc2cccc(C(=O)O)c2n1Cc1ccc(-c2ccccc2-c2nnn[nH]2)cc1 [CAN, Candesartan]
cardiac ejection fraction (EF) [1]: 41.1±1%

EC50 (AT1R [3]): 1 nM | times less potent than AngII for βarr activation by the AT1R (AT1R [3]; ratio of EC50s): 10 times
Structure (SMILES): CCSC[C@H](NC(=O)[C@H](Cc1ccc(O)cc1)NC(=O)[C@@H](NC(=O)[C@H](CCCNC(=N)N)NC(=O)CNC)C(C)C)C(=O)N[C@@H](Cc1c[nH]cn1)C(=O)N1CCC[C@H]1C(=O)N[C@@H](CC(C)C)C(=O)O [CORET, Sar^1,Cys(Et)^5,Leu^8-AngII] (H-[Sar]RVYC(Et)HPL-OH; N-terminus and C-terminus assumed)
SII-induced aldosterone secretion (H295R cells): can enhance; also recorded: far greater aldosterone secretion in vitro than SII | plasma aldosterone levels vs. Saline [2]: an increase; also recorded: significantly worsens hyperaldosteronism | myocardial systolic function in response to maximal dose of Isoproterenol (Max. Iso) [4]: severely impaired myocardial systolic function | ejection fraction (EF %) vs. Saline, in words [1]: further worsened cardiac function

relative potency for inhibition of SII-induced activation of βarr2 by human AT1R (AT1R [5]): the least potent βarr inhibitors | ratio of IC50 for AT1R-βarr antagonism to IC50 for G-protein antagonism (AT1R [6]): 1.05
Structure (SMILES): CCCCC1=NC2(CCCC2)C(=O)N1Cc1ccc(-c2ccccc2-c2nnn[nH]2)cc1 [IRB, Irbesartan]
plasma aldosterone levels vs. Saline [2]: unable to counter the adrenal βarr1-mediated hyperaldosteronism | myocardial systolic function in response to maximal dose of Isoproterenol (Max. Iso) [4]: severely impaired myocardial systolic function | ejection fraction (EF %) vs. Saline, in words [1]: further worsened cardiac function | cardiac ejection fraction (EF) [1]: 32±1%

Structure (SMILES): CCCCc1nc(Cl)c(CO)n1Cc1ccc(-c2ccccc2-c2nn[nH]n2)cc1 [LOS, Losartan]
cardiac fibrosis in Adβarr1-adrenal treated rat hearts under drug treatment (post-MI rat hearts): incapable of reducing the cardiac fibrosis | plasma aldosterone reduction by losartan in Adβarr1ct-treated post-MI rats (post-MI rats [7]; losartan 50 mg/kg/day for 7 days post-gene delivery): no significant aldosterone reduction | plasma aldosterone, losartan-treated control AdGFP post-MI rats (post-MI rats [7]; losartan 50 mg/kg/day for 7 days post-gene delivery, saline-treated 470±20): 402 ± 10 pg/mL | plasma aldosterone, losartan-treated Adβarr1 post-MI rats (post-MI rats [7]; losartan 50 mg/kg/day for 7 days post-gene delivery, saline-treated 845±150, not significant): 880 ± 88 pg/mL

EC50 (AT1R [3]): 11.2 nM
Structure (SMILES): CC[C@H](C)[C@H](NC(=O)[C@@H]1CCCN1C(=O)[C@H](Cc1c[nH]cn1)NC(=O)[C@@H](NC(=O)[C@@H](NC(=O)[C@@H](NC(=O)[C@H](CCCNC(=N)N)NC(=O)CNC)C(C)C)[C@@H](C)CC)[C@@H](C)CC)C(=O)O [SII, Sar^1,Ile^4,Ile^8-AngII]

Structure (SMILES): CCCCC(=O)N(Cc1ccc(-c2ccccc2-c2nnn[nH]2)cc1)[C@H](C(=O)O)C(C)C [VAL, Valsartan]
SII-induced aldosterone secretion (H295R cells): can inhibit | plasma aldosterone levels vs. Saline [2]: profound decreases | plasma aldosterone levels vs. Saline ([2]; listed as valsartan): significant plasma aldosterone reductions | myocardial systolic function in response to maximal dose of Isoproterenol (Max. Iso) [4]: significantly improves it | ejection fraction (EF %) vs. Saline, in words [1]: significantly improved | cardiac ejection fraction (EF) [1]: 40±1%

Structure (SMILES): COC(=O)[C@@H]1CC2=CC(=O)CC[C@]2(C)[C@@]23O[C@@H]2C[C@@]2(C)[C@@H](CC[C@@]24CCC(=O)O4)[C@H]13 [eplerenone]
cardiac fibrosis in Adβarr1-adrenal treated rat hearts under drug treatment (post-MI rat hearts): markedly reduced fibrosis | EF reduction and LVEDD increase induced by adrenal βarr1 overexpression (post-MI rats [8]; eplerenone 100 mg/kg/d for 7 days): prevented | effects of adrenal βarr1 overexpression (EF, LVEDD) (post-MI rats [8]; eplerenone low dose 5 mg/kg/d, data not shown): prevented | effect on plasma aldosterone increase caused by Adβarr1 treatment (post-MI rats [7]; Adβarr1 post-MI rats, 100 mg/kg/day eplerenone for 7 days): no effect
